Reference: PubChem BioAssay (NCI)
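Briefly, cells in 96-well plates were exposed to five compound concentrations for 48 h, and endpoints were estimated by linear interpolation. Abbreviation: GI50, concentration required for 50% inhibition of growth. Definition used: TGI = concentration required for complete inhibition of growth.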

Columns and labels:
Assay in all cases: inhibition of tumour cell growth, NCI panel, 48 h
[1] = tested on: HT29 colon
[2] = tested on: MOLT-4 leukemia
[3] = tested on: NCI-H23 lung
[4] = tested on: OVCAR-5 ovarian
[5] = tested on: OVCAR-8 ovarian
[6] = tested on: RPMI-8226 leukemia
[7] = tested on: SF-295 CNS
[8] = tested on: SK-MEL-2 melanoma
[9] = tested on: SNB-19 CNS
[10] = tested on: OVCAR-3 ovarian

Compound	TGI [1] [µM]	TGI [2] [µM]	TGI [3] [µM]	TGI [4] [µM]	TGI [5] [µM]	TGI [6] [µM]	TGI [7] [µM]	TGI [8] [µM]	TGI [9] [µM]	TGI [10] [µM]	GI50 [1] [µM]	GI50 [2] [µM]	GI50 [3] [µM]	GI50 [10] [µM]	GI50 [4] [µM]	GI50 [5] [µM]	GI50 [6] [µM]	GI50 [7] [µM]	GI50 [9] [µM]	GI50 [8] [µM]
CN=C(NC(=S)N(C)C)N(C)C	> 100	> 100	> 100	> 100	> 100	> 100	> 100	> 100	> 100	–	–	–	–	–	–	–	–	–	–	–
C#CC[N+](C)(CC#C)CC#C	> 100	> 100	> 100	> 100	> 100	> 100	> 100	> 100	> 100	> 100	–	–	–	–	–	–	–	–	–	–
Cc1c(CCO)c(=O)n2c([nH]c3ccccc32)c1C#N	> 100	–	> 100	> 100	> 100	> 100	> 100	> 100	91.8	> 100	–	–	–	–	–	–	–	–	–	–
COc1cc(OC)c2nccc(NCCCN(C)C)c2c1[N+](=O)[O-]	> 100	> 100	> 100	> 100	> 100	> 100	> 100	> 100	> 100	> 100	–	–	–	–	–	–	–	–	–	–
O=S(=O)(O)c1ccc(N=Nc2nc(C(F)(F)F)c(C(F)(F)F)[nH]2)cc1	> 100	> 100	68.7	36	> 100	> 100	> 100	> 100	71.1	> 100	–	–	–	–	–	–	–	–	–	–
Cc1cc(Nc2nc(-c3cccnc3)nc3ccccc23)n[nH]1	11.8	> 100	> 100	> 100	> 100	> 95.1	> 100	–	> 100	> 100	1.57	> 57.2	5.16	3.74	7.77	9.55	> 38.5	2.72	5.98	–
COc1ccc(/C=c2\sc3n(c2=O)C2C(NN=3)N(C)C(=O)N2C)cc1 (centres undefined)	> 100	> 100	> 100	> 100	> 100	> 19.6	> 24.5	> 100	> 100	3.53	0.56	1.24	1.75	0.481	2.25	1.75	0.455	0.917	1.3	2.31
CN(COC(=O)c1ccccc1)c1nc(N(C)COC(=O)c2ccccc2)nc(N(C)COC(=O)c2ccccc2)n1	> 100	> 100	> 100	> 100	> 100	> 100	> 84.9	–	51.7	> 100	–	–	–	–	–	–	–	–	–	–
Nc1c(O)cc(N=C2C(=O)C=CC=C2C(=O)O)c(O)c1C(=O)O	> 100	> 100	> 100	> 100	> 100	> 100	> 100	> 91.2	> 100	> 100	–	–	–	–	–	–	–	–	–	–
COC(=O)C1C=CCON2CCc3c(n(C)c4ccccc34)C12 (centres undefined)	> 100	> 100	> 100	> 100	–	> 100	> 100	> 100	> 100	> 100	–	–	–	–	–	–	–	–	–	–
O=C(CCC(=O)Nc1ccc(Cl)c(Cl)c1)CC(=O)c1ccc(F)cc1	> 100	> 100	> 100	> 100	> 100	–	> 100	–	> 100	> 100	–	–	–	–	–	–	–	–	–	–
Cn1c(=O)c(NC(=O)C(Cl)(Cl)Cl)nc2ccccc21	> 100	> 100	> 100	–	> 100	> 100	> 100	> 100	> 100	> 100	–	–	–	–	–	–	–	–	–	–
O=C(O)C1CC2(C1)CC(C(=O)O)C2 (centres undefined)	> 100	> 100	> 100	> 100	–	> 100	> 100	> 100	> 100	> 100	–	–	–	–	–	–	–	–	–	–
CCn1c(SC(C)C(=O)c2c(C)n(C)n(-c3ccccc3)c2=O)nc2ccccc2c1=O (centres undefined)	> 100	> 100	> 100	> 100	> 100	> 100	> 100	> 100	–	> 100	–	–	–	–	–	–	–	–	–	–
CS(=O)(=O)NNS(=O)(=O)c1ccccc1	> 100	> 100	> 100	–	> 100	> 100	> 100	> 100	> 100	–	–	–	–	–	–	–	–	–	–	–
O=C(NCCO)c1ccc([N+](=O)[O-])cc1	> 100	> 100	> 100	–	> 100	> 100	> 100	> 100	> 100	> 100	–	–	–	–	–	–	–	–	–	–
Cc1cc(S(=O)(=O)/N=C/N(C)C)c(SC(=O)c2ccc(Cl)cc2)cc1Cl	–	> 100	56.2	> 100	> 100	80.6	> 100	> 100	> 100	91.1	–	61	23.2	33.3	48.6	40.9	25.4	50.9	53.8	45.8
COc1cccc(-c2ccc3c(c2)C2CCN(Cc4ccccc4)C3C2)c1 (centres undefined)	12.2	40.5	–	29	32.5	23.6	20.9	18	30.5	17	3.24	7.17	–	4.49	11.8	11.2	4.93	4.08	12.9	5.04
Cc1noc2c1C(=O)CCC2	> 100	> 100	–	> 100	> 100	> 100	–	> 100	–	> 100	–	–	–	–	–	–	–	–	–	–

Compound	TGI [1] [µM]	TGI [2] [µM]	TGI [3] [µM]	TGI [4] [µM]	TGI [5] [µM]	TGI [6] [µM]	TGI [7] [µM]	TGI [8] [µM]	TGI [9] [µM]	TGI [10] [µM]	GI50 [1] [µM]	GI50 [2] [µM]	GI50 [3] [µM]	GI50 [10] [µM]	GI50 [4] [µM]	GI50 [5] [µM]	GI50 [6] [µM]	GI50 [7] [µM]	GI50 [9] [µM]	GI50 [8] [µM]
CC(=O)N1N=C(c2ccc(Nc3ccnc4cc(Cl)ccc34)cc2)CC1c1ccc(Cl)cc1 (centres undefined)	> 100	> 100	> 100	> 100	> 100	–	> 100	> 100	> 100	> 100	5.4	2.42	> 100	7.19	> 100	> 100	–	3.58	> 100	> 100
COc1cccc(CSCC(=O)O)c1	> 100	–	> 100	> 100	> 100	> 100	> 100	> 100	> 100	> 100	–	–	–	–	–	–	–	–	–	–
NC(=O)c1ccccc1NC(=O)C(=O)Cc1nc2ccccc2[nH]c1=O	–	> 100	> 100	> 100	> 100	> 100	> 100	> 100	> 100	> 100	–	–	–	–	–	–	–	–	–	–
Clc1ccc(-c2csc(Nc3cccc(-c4csc(-c5ccccc5)n4)c3)n2)cc1	–	> 50	26.2	–	39	> 50	> 50	26.1	27.3	32.4	–	19.5	11.4	11.4	–	14.6	19.2	15.9	13	10.6
CN(C)C(=Nc1nc(=[N+](C)C)ss1)N(C)C	> 100	> 100	> 100	> 100	> 100	> 100	> 100	> 100	> 100	–	–	–	–	–	–	–	–	–	–	–
O=C1NC(=O)C(=Nc2cccc3c(=O)[nH][nH]c(=O)c23)C(c2nc3ccccc3s2)C1=O (centres undefined)	> 100	> 100	> 100	–	> 100	–	> 100	> 100	> 100	> 100	–	–	–	–	–	–	–	–	–	–
CCN(CC)c1ccc(N=Nc2ccc([N+](=O)[O-])cc2OC(=O)/C=C/c2ccccc2)c(OC(=O)/C=C/c2ccccc2)c1	> 100	> 100	> 100	–	> 100	> 100	> 100	> 100	> 100	> 100	–	–	–	–	–	–	–	–	–	–
Cc1ccc(/C=C2\CN(C(=O)C(Cl)Cl)C/C(=C\c3ccc(C)cc3)C2=O)cc1	–	–	0.478	1.46	> 100	0.484	0.665	5.5	1.03	0.483	0.241	–	0.221	0.209	0.333	0.357	0.0322	0.223	0.286	1.8
COc1ccccc1C1=C(Nc2ccccc2)C(=O)NC1=O	> 25	> 25	–	> 25	> 25	> 25	> 25	> 25	> 25	> 25	> 25	> 25	–	> 25	> 25	> 25	> 25	> 25	> 25	> 25
Cc1cccc(C(C)C)c1N1C(=O)C(=O)C(c2nc3ccccc3o2)C(=O)C1=O	> 100	63.8	> 100	> 100	> 100	–	> 100	> 100	> 100	> 100	–	–	–	–	–	–	–	–	–	–
Nc1cc(O)ccc1N=Nc1ccc(-c2nc3ccccc3[nH]2)cc1	–	> 100	–	> 100	52.5	94.6	> 100	> 100	> 100	49.6	–	> 100	–	13.7	> 100	10.7	30.2	16.8	> 100	45.1
O=C(/C=C/c1ccco1)c1ccc(NCc2nc3ccccc3[nH]2)cc1	38.3	31.9	27.5	31.5	47.8	–	31.1	34.9	30.6	31.1	–	–	–	–	–	–	–	–	–	–
O=[N+]([O-])c1ccc(-c2noc(-c3ccc(Cl)cc3)c2C2=NCCN2)cc1	> 100	> 100	–	> 100	> 100	> 100	> 100	> 100	> 100	> 100	–	–	–	–	–	–	–	–	–	–
CCOC(=O)c1c(C)n(Cc2ccccc2)c2c1cc(O)c1[nH]c(Cc3ccccc3)nc12	> 34.4	–	> 56	> 61	> 100	> 100	44.4	> 100	> 67.9	44	6.79	–	9.19	11.4	> 22.7	29.6	11.5	11.3	23.6	26.7
COc1cc2c(cc1OC)C(Sc1ccc(SC)cc1)c1c(nc(N)c(C#N)c1N)O2 (centres undefined)	–	4.08	3.55	3.5	3.47	6.46	3.01	2.9	2.8	3.06	–	1.07	1.78	1.62	1.87	1.93	2.54	1.63	1.45	1.48
NC(=O)c1c([N+](=O)[O-])cc(C(F)(F)F)cc1[N+](=O)[O-]	> 100	> 100	98.9	> 100	> 100	> 100	> 100	–	> 100	63.3	–	–	–	–	–	–	–	–	–	–
COC(=O)/C(=N/Nc1cccc(Cl)c1)C(C(=O)C(=O)Nc1cccc(Cl)c1C)c1nc2ccccc2nc1C (centres undefined)	> 100	> 100	> 100	59.8	> 100	> 100	> 100	> 100	–	> 100	–	–	–	–	–	–	–	–	–	–
S=C(Nc1ccc(N=Nc2ccccc2)cc1)SCc1ccccc1	52.1	27.9	30.7	–	22.5	33.3	34.4	50	39.4	29.4	–	–	–	–	–	–	–	–	–	–
CC(=O)c1c(CN(C)c2ccccc2)n([O-])c2ccccc2[n+]1=O	49.2	> 100	35.3	> 100	> 100	40.9	–	> 100	57.1	–	20.4	23.9	16.4	–	31.9	43.1	13.2	–	17.5	> 100
